Values of other authors, collected in publication PMC7400446, “Antimicrobial and Antifungal Activity of Rare Substituted 1,2,3-Thiaselenazoles and Corresponding Matched Pair 1,2,3-Dithiazoles” (Antibiotics, 2020).
≈ marks a conversion by molar mass, not a printed value.

Columns and labels:
Conditions in all cases: cited from earlier work
L. monocytogenes = tested on: L. monocytogenes; set-up: method as in PMID 19036587, doi:10.1016/0960-894X(96)00062-5, doi:10.1016/0960-894X(96)00423-4, doi:10.1016/S0223-5234(98)80040-8
E. faecalis = tested on: E. faecalis; set-up: method as in PMID 19036587, doi:10.1016/0960-894X(96)00062-5, doi:10.1016/0960-894X(96)00423-4, doi:10.1016/S0223-5234(98)80040-8
C. neoformans = tested on: C. neoformans; set-up: method as in earlier work
ASCT2 Transport = tested on: ASCT2 Transport; set-up: method as in PMID 19036587, PMID 23010140, PMID 28709952
S. aureus = tested on: S. aureus; set-up: method as in PMID 19036587, doi:10.1016/0960-894X(96)00062-5, doi:10.1016/0960-894X(96)00423-4, doi:10.1016/S0223-5234(98)80040-8
L1210 = tested on: L1210; set-up: method as in PMID 19036587, PMID 23010140, PMID 28709952
K562 = tested on: K562; set-up: method as in PMID 19036587, PMID 23010140, PMID 28709952

## COc1ccccc1/N=c1/ssnc1Cl [Compound 5]
L. monocytogenes
  MIC L. monocytogenes: 16 µg/mL (≈ 61.8 µM)
E. faecalis
  MIC E. faecalis: 16 µg/mL (≈ 61.8 µM)

## N#Cc1ccccc1/N=c1/ssnc1Cl [Compound 6]
C. neoformans
  MIC C. neoformans: 8 µg/mL (≈ 31.5 µM)

## FC(F)(F)Oc1ccc(/N=c2/ssnc2Cl)cc1Cl [Compound 3]
ASCT2 Transport
  IC50: 8.1 µM

## COc1ccc(/N=c2/ssnc2Cl)cc1 [Compound 7]
C. neoformans
  MIC C. neoformans: 8 µg/mL (≈ 30.9 µM)

## Clc1nss/c1=N/c1ccccc1 [Compound 4]
L. monocytogenes
  MIC L. monocytogenes: 16 µg/mL (≈ 70 µM)
S. aureus
  MIC S. aureus: 16 µg/mL (≈ 70 µM)
E. faecalis
  MIC E. faecalis: 16 µg/mL (≈ 70 µM)

## N#Cc1ncn(CCc2ccccc2)c1/N=c1/ssnc1Cl [Compound 2]
L1210
  IC50: 3 µM
K562
  IC50: 4 µM
